Measured values from article PMC7377239, “Cardiovascular Effects of Polychlorinated Biphenyls and Their Major Metabolites” (Environmental Health Perspectives, 2020).
Like-named read-outs stand apart in the source and are kept apart here.

What was measured:
[1] = test system: iCell endothelial cells (human iPSC-derived ECs); assay: High-content imaging cytotoxicity in iCell endothelial cells, 24 h; type: cell-based; conditions: Homo sapiens, Endothelial cell, iPSC-EC; for viability at 0.1 µM / activity at 0.1 µM: 0.10 µM; for minimal effective concentration: 100.00 = highest concentration tested
Outline: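 Human iPSC-derived endothelial cells (passages 1–5) were grown to a fibronectin-coated monolayer, then exposed 24 h at 37 °C with 0.5% DMSO vehicle. Staining was Hoechst 33342, MitoTracker Orange and calcein AM, read by high-content imaging. Point of departure came from 4-parameter logistic fits, with a 1-SD vehicle cutoff and 100 µM as the top concentration.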

HUVECs = assay: High-content imaging cytotoxicity in HUVECs, 24 h; type: cell-based, human; conditions: Homo sapiens, HUVEC, 24 h, HUVECs; for viability at 0.01 µM / activity at 0.01 µM: concentration 0.01 µM; for viability at 0.01 µM / activity at 0.01 µM / viability at 0.1 µM / activity at 0.1 µM / viability at 1 µM / activity at 1 µM / viability at 10 µM / activity at 10 µM / viability at 100 µM / activity at 100 µM: 0.00 µM = 100.00; for viability at 0.1 µM / activity at 0.1 µM: concentration 0.10 µM; for viability at 1 µM / activity at 1 µM: concentration 1.00 µM; for viability at 10 µM / activity at 10 µM: concentration 10.00 µM; for viability at 100 µM / activity at 100 µM: concentration 100.00 µM; for minimal effective concentration: MAX 100.00
Outline: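 Point-of-departure values derive from four-parameter logistic fits of vehicle-normalized imaging phenotypes (Hoechst 33342, MitoTracker Orange, calcein AM). The fits follow 24 h exposure of HUVEC monolayers at 37°C and 5% CO2, with a top tested concentration of 100μM.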

[2] = 0.00 µM = 100.00, read-out: endo.cyto.24hr
[3] = 0.00 µM = 100.00, read-out: endo.mito.24hr
[4] = 0.00 µM = 100.00, read-out: endo.mitoint.24hr
[5] = 0.00 µM = 100.00, read-out: endo.nma.24hr
[6] = 0.00 µM = 100.00, read-out: endo.tc.24hrs
[7] = 24 hr, read-out: huvec.cyto.24hr
[8] = 24 hr, read-out: huvec.mito.24hr
[9] = 24 hr, read-out: huvec.mitoint.24hr
[10] = 24 hr, read-out: huvec.nma.24hr
[11] = 24 hrs, read-out: huvec.tc.24hrs

**Q.** With `Clc1ccc(-c2cc(Cl)c(Cl)c(Cl)c2)cc1Cl` [PCB126] as the molecule, how does the viability at 0.01 µM [1, 2] read?
**A.** 100%

**Q.** And the activity at 0.01 µM [1, 3]?
**A.** 99.1%

**Q.** And the activity at 0.01 µM [1, 4]?
**A.** 79.8%

**Q.** And the activity at 0.01 µM [1, 5]?
**A.** 97.4%

**Q.** And the viability at 0.01 µM [1, 6]?
**A.** 100%

**Q.** What about the viability at 0.1 µM [1, 2] of the same molecule?
**A.** 95%

**Q.** What about the activity at 0.1 µM [1, 3] of the same molecule?
**A.** 95.2%

**Q.** What about the activity at 0.1 µM [1, 4] of the same molecule?
**A.** 106%

**Q.** And the activity at 0.1 µM [1, 5]?
**A.** 97.8%

**Q.** What about the viability at 0.1 µM [1, 6] of the same molecule?
**A.** 95%

**Q.** What about the viability at 1 µM [1, 2] of the same molecule?
**A.** 93.4%

**Q.** And the activity at 1 µM [1, 3]?
**A.** 93.4%

**Q.** And the activity at 1 µM [1, 4]?
**A.** 100%

**Q.** What about the activity at 1 µM [1, 5] of the same molecule?
**A.** 101%

**Q.** What about the viability at 1 µM [1, 6] of the same molecule?
**A.** 93.4%

**Q.** And the viability at 10 µM [1, 2]?
**A.** 87.7%

**Q.** And the activity at 10 µM [1, 3]?
**A.** 87.6%

**Q.** And the activity at 10 µM [1, 4]?
**A.** 110%

**Q.** And the activity at 10 µM [1, 5]?
**A.** 103%

**Q.** What about the viability at 10 µM [1, 6] of the same molecule?
**A.** 87.7%

**Q.** What about the viability at 100 µM [1, 2] of the same molecule?
**A.** 75.3%

**Q.** And the activity at 100 µM [1, 3]?
**A.** 74.9%

**Q.** What about the activity at 100 µM [1, 4] of the same molecule?
**A.** 151%

**Q.** And the activity at 100 µM [1, 5]?
**A.** 98.8%

**Q.** And the viability at 100 µM [1, 6]?
**A.** 76.9%

**Q.** And the minimal effective concentration ([1]; read-out: endo.cyto.24hr POD)?
**A.** 0.33 µM

**Q.** And the minimal effective concentration ([1]; read-out: endo.mito.24hr POD)?
**A.** 0.33 µM

**Q.** What about the minimal effective concentration ([1]; read-out: endo.mitoint.24hr POD) of the same molecule?
**A.** 10.2 µM

**Q.** And the minimal effective concentration ([1]; read-out: endo.nma.24hr POD)?
**A.** 100 µM

**Q.** And the minimal effective concentration ([1]; read-out: endo.tc.24hrs POD)?
**A.** 0.34 µM

**Q.** And the viability at 0.01 µM (HUVECs; [7])?
**A.** 86.8%

**Q.** And the activity at 0.01 µM (HUVECs; [8])?
**A.** 85.6%

**Q.** And the activity at 0.01 µM (HUVECs; [9])?
**A.** 89%

**Q.** And the activity at 0.01 µM (HUVECs; [10])?
**A.** 94.2%

**Q.** And the viability at 0.1 µM (HUVECs; [7])?
**A.** 93.4%

**Q.** And the activity at 0.1 µM (HUVECs; [8])?
**A.** 92%

**Q.** And the activity at 0.1 µM (HUVECs; [9])?
**A.** 79.3%

**Q.** What about the activity at 0.1 µM (HUVECs; [10]) of the same molecule?
**A.** 93.5%

**Q.** What about the viability at 1 µM (HUVECs; [7]) of the same molecule?
**A.** 93.8%

**Q.** And the activity at 1 µM (HUVECs; [8])?
**A.** 92.5%

**Q.** What about the activity at 1 µM (HUVECs; [9]) of the same molecule?
**A.** 83.6%

**Q.** What about the activity at 1 µM (HUVECs; [10]) of the same molecule?
**A.** 95.2%

**Q.** And the viability at 10 µM (HUVECs; [7])?
**A.** 91.2%

**Q.** What about the activity at 10 µM (HUVECs; [8]) of the same molecule?
**A.** 89.7%

**Q.** What about the activity at 10 µM (HUVECs; [9]) of the same molecule?
**A.** 74.2%

**Q.** What about the activity at 10 µM (HUVECs; [10]) of the same molecule?
**A.** 93%

**Q.** What about the viability at 100 µM (HUVECs; [7]) of the same molecule?
**A.** 57.1%

**Q.** And the activity at 100 µM (HUVECs; [8])?
**A.** 55%

**Q.** And the activity at 100 µM (HUVECs; [9])?
**A.** 96.7%

**Q.** And the activity at 100 µM (HUVECs; [10])?
**A.** 84.5%

**Q.** What about the minimal effective concentration (HUVECs; 24 hr, read-out: huvec.cyto.24hr POD) of the same molecule?
**A.** 5.33 µM

**Q.** And the minimal effective concentration (HUVECs; 24 hr, read-out: huvec.mito.24hr POD)?
**A.** 100 µM

**Q.** What about the minimal effective concentration (HUVECs; 24 hr, read-out: huvec.mitoint.24hr POD) of the same molecule?
**A.** 100 µM

**Q.** And the minimal effective concentration (HUVECs; 24 hr, read-out: huvec.nma.24hr POD)?
**A.** 100 µM

**Q.** What about the viability at 0.01 µM (HUVECs; [11]) of the same molecule?
**A.** 86.9%

**Q.** And the viability at 0.1 µM (HUVECs; [11])?
**A.** 93.4%

**Q.** What about the viability at 1 µM (HUVECs; [11]) of the same molecule?
**A.** 93.8%

**Q.** And the viability at 10 µM (HUVECs; [11])?
**A.** 91.4%

**Q.** And the viability at 100 µM (HUVECs; [11])?
**A.** 57.3%

**Q.** And the minimal effective concentration (HUVECs; 24 hrs, read-out: huvec.tc.24hrs POD)?
**A.** 5.33 µM
